Source: US6355799B1, “Substituted benzene compounds, process for their preparation, and herbicidal and defoliant compositions containing them” (ISK Americas Incorporated, priority 1997, dated 2002)

Columns and labels:
Assay type in all cases: in vivo
[1] = tested on: field corn (Zea mays L., var. Dekalb 535, CORN); assay: Pre-emerge test, crop safety; conditions: pre-emerge, 14 days after application, rating scale 0-100
Procedure, shortened: (§1)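 Applied at 15–1000 g ai/ha from acetone in 187 l/ha spray volume. Post-emergence applications included 0.25% v/v non-ionic surfactant and reached plants sown 8–21 days before. Pre-emergence applications were incorporated by surface watering. Efficacy or crop damage was rated on a 0–100 scale after 14 days.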

[2] = tested on: upland rice (Oryza sp., var. Tebonnet, RICE); assay: Pre-emerge test, crop safety; conditions: pre-emerge, 14 days after application, rating scale 0-100
Procedure, shortened: as §1

[3] = tested on: velvetleaf (Abutilon theophrasti, ABUTH); assay: Pre-emerge test, greenhouse herbicide activity screening; conditions: pre-emerge, 14 days after application, rating scale 0-100
Procedure, shortened: (§2)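 Compounds in acetone were track-sprayed at 187 l/ha, 15–1000 g ai/ha, onto sandy loam pots. Pre-emerge seeds were sown one day before spraying, with surface watering afterwards. Post-emerge plants were at the 2–3 leaf stage and sprayed with 0.25% v/v non-ionic surfactant. Injury was rated 0–100 at 14 days.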

[4] = tested on: sicklepod (Cassia obtusifolia, CASOB); assay: as above; conditions: pre-emerge, 14 days after application, rating scale 0-100
Procedure, shortened: as §2

[5] = tested on: johnsongrass (Sorghum halepense, SORHA); assay: as above; conditions: pre-emerge, 14 days after application, rating scale 0-100
Procedure, shortened: as §2

[6] = tested on: barnyardgrass (Echinochloa crus-galli, ECHCG); assay: as above; conditions: pre-emerge, 14 days after application, rating scale 0-100
Procedure, shortened: as §2

[7] = tested on: green foxtail (Setaria viridis, SETVI); assay: as above; conditions: pre-emerge, 14 days after application, rating scale 0-100
Procedure, shortened: as §2

[8] = tested on: ivyleaf morningglory (Ipomoea hederacea, IPOHE); assay: as above; conditions: pre-emerge, 14 days after application, rating scale 0-100
Procedure, shortened: as §2

[9] = tested on: large crabgrass (Digitaria sanguinalis, DIGSA); assay: as above; conditions: pre-emerge, 14 days after application, rating scale 0-100
Procedure, shortened: as §2

[10] = tested on: lambsquarters (Chenopodium album, CHEAL); assay: as above; conditions: pre-emerge, 14 days after application, rating scale 0-100
Procedure, shortened: as §2

[11] = tested on: redroot pigweed (Amaranthus retroflexus, AMARE); assay: as above; conditions: pre-emerge, 14 days after application, rating scale 0-100
Procedure, shortened: as §2

[12] = tested on: velvetleaf (Abutilon theophrasti, ABUTH); assay: Post-emerge test, greenhouse herbicide activity screening; conditions: rating scale 0-100 (0 no damage, 100 complete death), 14 days after application
Procedure, shortened: as §2

[13] = tested on: redroot pigweed (Amaranthus retroflexus, AMARE); assay: as above; conditions: rating scale 0-100 (0 no damage, 100 complete death), 14 days after application
Procedure, shortened: as §2

[14] = tested on: sicklepod (Cassia obtusifolia, CASOB); assay: as above; conditions: rating scale 0-100 (0 no damage, 100 complete death), 14 days after application
Procedure, shortened: as §2

[15] = tested on: johnsongrass (Sorghum halepense, SORHA); assay: as above; conditions: rating scale 0-100 (0 no damage, 100 complete death), 14 days after application
Procedure, shortened: as §2

[16] = tested on: barnyardgrass (Echinochloa crus-galli, ECHCG); assay: as above; conditions: rating scale 0-100 (0 no damage, 100 complete death), 14 days after application
Procedure, shortened: as §2

[17] = tested on: green foxtail (Setaria viridis, SETVI); assay: as above; conditions: rating scale 0-100 (0 no damage, 100 complete death), 14 days after application
Procedure, shortened: as §2

[18] = tested on: ivyleaf morningglory (Ipomoea hederacea, IPOHE); assay: as above; conditions: rating scale 0-100 (0 no damage, 100 complete death), 14 days after application
Procedure, shortened: as §2

[19] = tested on: large crabgrass (Digitaria sanguinalis, DIGSA); assay: as above; conditions: rating scale 0-100 (0 no damage, 100 complete death), 14 days after application
Procedure, shortened: as §2

[20] = tested on: field corn (Zea mays L., var. Dekalb 535, CORN); assay: Post-emerge test, crop safety; conditions: rating scale 0-100 (0 no damage, 100 complete death), 14 days after application
Procedure, shortened: as §2

[21] = tested on: upland rice (Oryza sp., var. Tebonnet, RICE); assay: Post-emerge test, crop safety; conditions: rating scale 0-100 (0 no damage, 100 complete death), 14 days after application
Procedure, shortened: as §2

CCOC(=O)C(Cl)Cc1cc(Cl)cc(F)c1-n1nc(C)n(C(F)F)c1=O (stereo not drawn) [14-52]
20: Post-emerge Herbicidal Activity, phytotoxicity rating AMARE ([13]; Rate 63 g ai/ha)
10: Post-emerge Herbicidal Activity, phytotoxicity rating ECHCG ([16]; Rate 250 g ai/ha) | Post-emerge phytotoxicity rating CORN (crop damage) ([20]; Rate 250 g ai/ha)
40: phytotoxicity rating AMARE ([11]; 63 g ai/ha)
90: phytotoxicity rating AMARE ([11]; 250 g ai/ha) | Post-emerge Herbicidal Activity, phytotoxicity rating ABUTH ([12]; Rate 63 g ai/ha)
70: phytotoxicity rating ABUTH ([3]; 63 g ai/ha) | Post-emerge Herbicidal Activity, phytotoxicity rating CASOB ([14]; Rate 250 g ai/ha)
100: phytotoxicity rating ABUTH ([3]; 250 g ai/ha) | phytotoxicity rating CHEAL ([10]; 250 g ai/ha) | Post-emerge Herbicidal Activity, phytotoxicity rating ABUTH ([12]; Rate 250 g ai/ha) | Post-emerge Herbicidal Activity, phytotoxicity rating IPOHE ([18]; Rate 63 g ai/ha) | Post-emerge Herbicidal Activity, phytotoxicity rating IPOHE ([18]; Rate 250 g ai/ha)
0: phytotoxicity rating CORN ([1]; 63 g ai/ha) | phytotoxicity rating CORN ([1]; 250 g ai/ha) | phytotoxicity rating RICE ([2]; 63 g ai/ha) | phytotoxicity rating RICE ([2]; 250 g ai/ha) | phytotoxicity rating CASOB ([4]; 63 g ai/ha) | phytotoxicity rating CASOB ([4]; 250 g ai/ha) | phytotoxicity rating SORHA ([5]; 63 g ai/ha) | phytotoxicity rating SORHA ([5]; 250 g ai/ha) | phytotoxicity rating ECHCG ([6]; 63 g ai/ha) | phytotoxicity rating ECHCG ([6]; 250 g ai/ha) | phytotoxicity rating SETVI ([7]; 63 g ai/ha) | phytotoxicity rating SETVI ([7]; 250 g ai/ha) | phytotoxicity rating IPOHE ([8]; 63 g ai/ha) | phytotoxicity rating DIGSA ([9]; 63 g ai/ha) | phytotoxicity rating DIGSA ([9]; 250 g ai/ha) | Post-emerge Herbicidal Activity, phytotoxicity rating CASOB ([14]; Rate 63 g ai/ha) | Post-emerge Herbicidal Activity, phytotoxicity rating SORHA ([15]; Rate 63 g ai/ha) | Post-emerge Herbicidal Activity, phytotoxicity rating SORHA ([15]; Rate 250 g ai/ha) | Post-emerge Herbicidal Activity, phytotoxicity rating ECHCG ([16]; Rate 63 g ai/ha) | Post-emerge Herbicidal Activity, phytotoxicity rating SETVI ([17]; Rate 63 g ai/ha) | Post-emerge Herbicidal Activity, phytotoxicity rating SETVI ([17]; Rate 250 g ai/ha) | Post-emerge Herbicidal Activity, phytotoxicity rating DIGSA ([19]; Rate 63 g ai/ha) | Post-emerge Herbicidal Activity, phytotoxicity rating DIGSA ([19]; Rate 250 g ai/ha) | Post-emerge phytotoxicity rating CORN (crop damage) ([20]; Rate 63 g ai/ha) | Post-emerge phytotoxicity rating RICE (crop damage) ([21]; Rate 63 g ai/ha) | Post-emerge phytotoxicity rating RICE (crop damage) ([21]; Rate 250 g ai/ha)
50: Post-emerge Herbicidal Activity, phytotoxicity rating AMARE ([13]; Rate 250 g ai/ha)
80: phytotoxicity rating CHEAL ([10]; 63 g ai/ha)
30: phytotoxicity rating IPOHE ([8]; 250 g ai/ha)
